Read-outs that look alike come from different tables or passages of the source. Ends that are not written are not given here.
Columns and labels:
PrP^SC in ScN2a cells = PrP^SC in ScN2a cells (Mus musculus, UniProt P04925); assay type: cell-based; conditions: for anti-prion activity at 30 nM: pH 7.4
[1] = assay type: physicochemical
[2] = assay type: physicochemical; conditions: pH 3
in vitro = conditions: mouse, ScN2a cells, pH 7.4, cell survival rate

Sequence of PrP^SC in ScN2a cells (P04925 23-230 limits assumed): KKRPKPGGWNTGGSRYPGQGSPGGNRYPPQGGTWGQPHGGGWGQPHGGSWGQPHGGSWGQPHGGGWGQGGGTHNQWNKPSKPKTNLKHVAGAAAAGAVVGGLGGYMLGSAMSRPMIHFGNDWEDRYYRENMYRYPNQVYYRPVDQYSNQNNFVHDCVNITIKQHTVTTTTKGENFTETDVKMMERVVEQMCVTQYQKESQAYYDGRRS

Compound: H-RR-ahx-FKFEFKFEFKFE-NH2 [Example 2]
- anti-prion activity (PK-resistant PrP^SC level by western blot) (PrP^SC in ScN2a cells): shows anti-prion activity, although weaker than that of the fusion peptide of Example 1

Compound: RRRRRRRRRRRRGSGGFKFEFKFEFKFE-NH2 [R12-β SPN]
- anti-prion activity (PK-resistant PrP^SC level by western blot) (PrP^SC in ScN2a cells): comparable to that of the peptide of Example 1
- cytotoxicity (ScN2a cells): moderate cytotoxicity

Compound: RRRRRRRRRRRRGSGGFKFEFKFEFKFE-NH2 [Example 3]
- anti-prion activity (PK-resistant PrP^SC level by western blot) (PrP^SC in ScN2a cells): remarkably higher anti-prion activity than the peptide consisting only of arginine residues of the same number (R12)
- anti-prion activity at 10 nM (PrP^SC in ScN2a cells): remarkably superior anti-prion activity
- fold decrease of anti-prion activity compared to R12-β UNS (PrP^SC in ScN2a cells): ≥ 14.5 times
- zeta potential difference, acidic condition (pH 2-5.5) versus neutral condition ([1]; pH 2): +14 to 18 mV
- zeta potential ([1]; pH 3): +40 mV
- zeta potential ([1]; pH 5): +38 mV
- zeta potential ([1]; pH 7): +24 mV
- zeta potential ([1]; pH 11): +30 mV
- diameter of vesicular nanostructure [2]: 20-90 nm
- height of vesicular nanostructure, on average [2]: 1-20 nm
- height of vesicular nanostructure, specifically [2]: 8-16 nm
- width of vesicular nanostructure, on average [2]: 50-100 nm
- width of vesicular nanostructure, specifically [2]: 70-90 nm
- cytotoxicity (ScN2a cells): significantly lower toxicity than the peptide of Comparative Example 3
- viability (in vitro): ≥ 70%

Compound: N=C(N)NCCC[C@H](NC(=O)CNC(=O)CCCCCN)C(=O)N[C@@H](CCCCN)C(=O)N[C@@H](CCCCN)C(=O)N[C@@H](CCCNC(=N)N)C(=O)N[C@@H](CCCNC(=N)N)C(=O)N[C@@H](CCC(N)=O)C(=O)N[C@@H](CCCNC(=N)N)C(=O)N[C@@H](CCCNC(=N)N)C(=O)N[C@@H](CCCNC(=N)N)C(=O)N1CCC[C@H]1C(=O)N1CCC[C@H]1C(=O)N[C@@H](CCC(N)=O)C(N)=O [Comparative Example 1, reference compound]
- cytotoxicity (ScN2a cells): remarkably low cytotoxicity

Compound: H-RRRRRRRRRRRRRR-GSGG-FKFEFKFEFKFE-NH2 [Example 4]
- anti-prion activity at 30 nM (PrP^SC in ScN2a cells): remarkably high anti-prion activity

Compound: H-GRKKRRQRRRPPQ-GSGG-FKFEFKFEFKFE-NH2 [Example 1]
- anti-prion activity (PK-resistant PrP^SC level by western blot) (PrP^SC in ScN2a cells): gradual decrease in the PrP^SC concentration as its concentration is increased
- concentration at which anti-prion activity is exhibited (PrP^SC in ScN2a cells): ≥ 100 nM

Compound: H-RRRRRRRRRRRRRRR-GSGG-FKFEFKFEFKFE-NH2 [Example 5]
- anti-prion activity at 30 nM (PrP^SC in ScN2a cells): remarkably high anti-prion activity

Compound: RRRRRRRRRRRRGSGGFKFEFKFEFKFE-NH2 [R12-β UNS]
- anti-prion activity (PK-resistant PrP^SC level by western blot) (PrP^SC in ScN2a cells): comparable to that of the peptide Comparative Example 3
- fold higher anti-prion activity than R12-β SPN (fibrillar nanostructure) (PrP^SC in ScN2a cells): 14.5 times
- cytotoxicity at 10 μM (ScN2a cells; pH 7.4): low toxicity

From US10232012B2 (INDUSTRY-ACADEMIC COOPERATION FOUNDATION, YONSEI UNIVERSITY, priority 2016, dated 2019)
